Measured values: ChEMBL document CHEMBL1130946, “Highly efficient and versatile synthesis of libraries of constrained beta-strand mimetics” (Bioorg Med Chem Lett, 1998)

Assays:
Prothrombin = Prothrombin (Homo sapiens, UniProt P00734); experiment: Compound was evaluated for its binding affinity to the thrombin
Serine protease 1 = Serine protease 1 (Homo sapiens, UniProt P07477); experiment: Compound was evaluated for its binding affinity to the trypsin enzyme
Kallikrein-1 = Kallikrein-1 (Homo sapiens, UniProt P06870); experiment: Compound was evaluated for its inhibitory activity against Kallikrein
Chain of Kallikrein-1 (P06870 whole entry): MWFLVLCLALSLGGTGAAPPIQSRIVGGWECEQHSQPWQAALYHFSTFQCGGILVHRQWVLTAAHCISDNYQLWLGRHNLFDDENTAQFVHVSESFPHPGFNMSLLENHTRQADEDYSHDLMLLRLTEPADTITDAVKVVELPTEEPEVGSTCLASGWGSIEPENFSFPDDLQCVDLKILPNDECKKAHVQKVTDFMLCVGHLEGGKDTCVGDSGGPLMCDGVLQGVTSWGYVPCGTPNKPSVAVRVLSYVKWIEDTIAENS

Tryptase = Tryptase (Homo sapiens, UniProt Q9BZJ3+Q15661+Q9NRR2); experiment: Compound was evaluated for its binding affinity to the tryptase; format: protein assay

Chain of Serine protease 1 (P07477 whole entry): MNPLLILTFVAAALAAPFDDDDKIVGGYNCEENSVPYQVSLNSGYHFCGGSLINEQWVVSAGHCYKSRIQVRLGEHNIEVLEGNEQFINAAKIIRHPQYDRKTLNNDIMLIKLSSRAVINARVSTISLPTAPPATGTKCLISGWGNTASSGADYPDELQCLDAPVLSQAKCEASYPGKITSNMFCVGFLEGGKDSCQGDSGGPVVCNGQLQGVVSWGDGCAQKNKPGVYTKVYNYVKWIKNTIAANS

Row | SMILES | Ki (Prothrombin) | further results
1 | CC1=CC(C(=O)NC(CCCCN)C(=O)C(=O)NCCc2ccc(C(N)=O)cc2)N2C(=O)C(Cc3ccccc3)(Cc3ccccc3)C(=O)N2C1 (stereo not drawn) | 1.89 nM | 
2 | CC1=CC(C(=O)NC(CCCCN)C(=O)C(=O)NCCc2ccc(C(N)=O)cc2)N2C(=O)C(CC(C)C)(CC(C)C)C(=O)N2C1 (stereo not drawn) | 5.09 nM | 
3 | NCCCCC(NC(=O)C1C=CCn2c(=O)n(CC(c3ccccc3)c3ccccc3)c(=O)n21)C(=O)C(=O)NCCc1ccc(C(N)=O)cc1 (stereo not drawn) | 0.3 nM | 
4 | COc1ccc(-n2c(=O)n3n(c2=O)C(C(=O)NC(CCCCN)C(=O)C(=O)NCCc2ccc(C(N)=O)cc2)C=CC3CC(C)C)cc1 (stereo not drawn) |  | Ki (Serine protease 1): 0.28 nM
5 | CCCCC1(CCCC)C(=O)N2CC(C)=CC(C(=O)NC(CCCCN)C(=O)C(=O)NCCc3ccc(C(N)=O)cc3)N2C1=O (stereo not drawn) | 0.2 nM | 
6 | CC1(C)C2CC3C(=CC(C(=O)NC(CCCCN)C(=O)C(=O)NCCc4ccc(C(N)=O)cc4)n4c(=O)n(Cc5ccc(Cl)c(Cl)c5)c(=O)n43)C1C2 (stereo not drawn) |  | Ki (Kallikrein-1): 31 nM
7 | CC1=CC(C(=O)NC(CCCCN)C(=O)C(=O)NCc2ccc(C(N)=O)cc2)N2C(=O)C(N)(Cc3ccccc3)C(=O)N2C1 (stereo not drawn) | 1.58 nM | 
8 | CCC1(N)C(=O)N2C(Cc3ccccc3)C=CC(C(=O)NC(CCCCN)C(=O)C(N)=O)N2C1=O (stereo not drawn) | 4.33 nM | 
9 | COC(=O)C1C(CCc2ccccc2)=CC(C(=O)NC(CCCCN)C(=O)C(=O)NCCc2ccc(C(N)=O)cc2)n2c(=O)n(Cc3cc(F)ccc3F)c(=O)n21 (stereo not drawn) |  | Ki (Kallikrein-1): 21 nM
10 | CC1=CC(C(=O)NC(CCCCN)C(=O)C(=O)NCCc2ccc(C(N)=O)cc2)n2c(=O)n(CC(c3ccccc3)c3ccccc3)c(=O)n2C1 (stereo not drawn) | 0.035 nM | 
11 | CC(C)CCn1c(=O)n2n(c1=O)C(C(=O)NC(CCCCN)C(=O)C(=O)NCCc1ccc(C(N)=O)cc1)C=CC2CC(C)C (stereo not drawn) |  | Ki (Serine protease 1): 0.43 nM
12 | CC1=CC(C(=O)NC(CCCCN)C(=O)C(=O)NCCc2ccc(C(N)=O)cc2)n2c(=O)n(C(c3ccccc3)c3ccccc3)c(=O)n2C1 (stereo not drawn) |  | Ki (Tryptase): 5.9 nM
13 | C=CCC1(CC=C)C(=O)N2CC(C)=CC(C(=O)NC(CCCCN)C(=O)C(=O)NCCc3ccc(C(N)=O)cc3)N2C1=O (stereo not drawn) | 18 nM | 
